# Tests used:
# [1] = target: adrenergic β2 receptor (Homo sapiens (Human), UniProt P07550); assay: Adrenergic β2 receptor cAMP secondary messenger antagonist assay; format: cell-based
# Source text: This assay used a panel of CHO-K1 cell lines stably expressing non-tagged GPCRs that endogenously signal through cAMP. Hit Hunter® cAMP assays monitored the activation of a GPCR via Gi and Gs secondary messenger signaling in a homogenous, non-imaging assay format using DiscoverX Enzyme Fragment Complementation (EFC) with β-galactosidase as the functional endpoint.
# The enzyme was split into two complementary portions: Enzyme Acceptor (EA) and Enzyme Donor (ED). In the assay, exogenously introduced ED fused to cAMP (ED-cAMP) competed with endogenously generated cAMP for binding to an anti-cAMP-specific antibody. […] Active enzyme could then convert a chemiluminescent substrate, generating an output signal detectable on a standard microplate reader.
# Cell lines were expanded from freezer stocks according to standard procedures. Cells were seeded in a total volume of 20 μL into white walled, 384-well microplates and incubated at 37° C. for the appropriate time prior to testing. cAMP modulation was determined using the DiscoverX HitHunter cAMP XS+ assay. […]
# Compound activity was analyzed using CBIS data analysis suite (ChemInnovation, CA). For Gs antagonist mode assays, percentage inhibition was calculated as 100%×(1−(mean RLU of test sample−mean RLU of vehicle control)/(mean RLU of EC80 control−mean RLU of vehicle control)).
# [2] = target: serotonin (5-HT) transporter (SERT) (Rattus norvegicus (Rat), UniProt P31652); assay: Rat synaptosome SERT [3H]5-HT release assay; settings: [3H]5-HT release via SERT EC50 (nM), 5 nM [3H]5-HT
# Chain of adrenergic β2 receptor (P07550 whole entry, looked up, the tested form may be a part): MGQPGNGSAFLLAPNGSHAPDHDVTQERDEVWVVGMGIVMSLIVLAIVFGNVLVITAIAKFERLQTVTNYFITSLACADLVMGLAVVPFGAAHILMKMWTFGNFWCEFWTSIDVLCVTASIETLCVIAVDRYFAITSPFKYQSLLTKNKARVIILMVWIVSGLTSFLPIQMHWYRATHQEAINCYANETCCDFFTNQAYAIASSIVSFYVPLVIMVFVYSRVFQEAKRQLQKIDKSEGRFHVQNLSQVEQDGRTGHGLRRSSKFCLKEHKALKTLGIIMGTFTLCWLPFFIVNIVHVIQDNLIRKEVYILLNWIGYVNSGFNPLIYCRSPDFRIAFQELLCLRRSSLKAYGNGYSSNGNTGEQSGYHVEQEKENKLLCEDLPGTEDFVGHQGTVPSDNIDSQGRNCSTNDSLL
structure (smiles),measurement,setting,value
"CN[C@H](C)Cc1ccc2ccoc2c1 [Compound R-6-MAPB, (R)-1-(benzofuran-6-yl)-N-methylpropan-2-amine]",IC50,[1],4060 nM
same,EC50,[2],112 ± 17.5 nM
